# What was measured:
# [1] = tested on: pseudovirus bearing S protein of SARS-CoV-1; assay: organism not typed; type: cell-based
# [2] = tested on: pseudovirus bearing S protein of HCoV-NL63; assay: organism not typed; type: cell-based
# [3] = target: T1, Recombinant Human TMPRSS2 (Homo sapiens, UniProt O15393); assay: TMPRSS2 biochemical assay with pre-incubation of inhibitor and enzyme; settings: for inhibition at 2.788 pM: concentration 0.00278767 nM; for inhibition at 8.363 pM: concentration 0.00836301 nM; for inhibition at 25.09 pM: concentration 0.025089 nM; for inhibition at 75.27 pM: concentration 0.0752671 nM; for inhibition at 0.000225801 µM: concentration 0.225801 nM; for inhibition at 0.000677404 µM: concentration 0.677404 nM; for inhibition at 0.00203221 µM: concentration 2.03221 nM; for inhibition at 0.00609663 µM: concentration 6.09663 nM; for inhibition at 0.0182899 µM: concentration 18.2899 nM; for inhibition at 0.0548697 µM: concentration 54.8697 nM; for inhibition at 0.164609 µM: concentration 164.609 nM; for inhibition at 0.493827 µM: concentration 493.827 nM; for inhibition at 1.48148 µM: concentration 1481.48 nM; for inhibition at 4.44444 µM: concentration 4444.44 nM; for inhibition at 13.3333 µM: concentration 13333.3 nM; for inhibition at 40 µM: concentration 40000 nM
# T1 construct: human TMPRSS2 residues 106492, N-terminal 6x His-tag; 6x His-tag (N); purchased Cusabio CSB-YP023924HU; host or cells: yeast
# T1 sequence (O15393 106-492 limits assumed): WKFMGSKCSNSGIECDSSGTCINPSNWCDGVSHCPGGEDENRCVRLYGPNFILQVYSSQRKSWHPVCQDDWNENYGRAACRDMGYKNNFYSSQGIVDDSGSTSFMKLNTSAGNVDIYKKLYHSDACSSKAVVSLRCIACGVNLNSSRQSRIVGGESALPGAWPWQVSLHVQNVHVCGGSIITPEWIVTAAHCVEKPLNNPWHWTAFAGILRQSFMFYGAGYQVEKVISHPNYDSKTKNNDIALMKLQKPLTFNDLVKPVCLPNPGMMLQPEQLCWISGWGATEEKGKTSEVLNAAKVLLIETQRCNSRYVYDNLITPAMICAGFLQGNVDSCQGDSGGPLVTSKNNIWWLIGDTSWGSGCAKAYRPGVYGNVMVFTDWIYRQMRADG
# Experimental: To that was dispensed TMPRSS2 (5 µl, 0.018 mg/ml) in assay buffer (50 mM Tris pH 8, 150 mM NaCl, 0.01% Tween20) using a BioRAPTR (Beckman Coulter) to give a total reaction volume of 5 µl. […] The final assay conditions are 10 µM peptide, 0.018 mg/ml TMPRSS2 in assay buffer (50 mM Tris-HCl, pH 8, 150 mM NaCl, 0.01% Tween20).
# After incubation at room temperature for 1 h, fluorescence was measured. […] Raw plate reads for each titration point were normalized relative to a positive control containing no enzyme (0% activity, full inhibition) and a negative control containing DMSO-only wells (100% activity, basal activity). Data normalization was performed using GraphPad Prism (GraphPad Software, San Diego, CA).
# We employed the curve fitting algorithm available in the SciPy package (version 1.10.1)[61] to derive the Hill slope and the IC50 value, along with their corresponding error estimates.
# To model the relationship between the pre-incubation time and the IC50, we use the following equation inspired by the Morse potential:3 ft,a,D,te=D⋅1−exp−a⋅t−te^2 where t is the time, a is the width of the well, D is the IC50 at infinite time (depth of the well) and te is the time at which the IC50 reaches its minimum. Again, we made use of SciPy’s curve fitting method to obtain parameters a, D and te, with their respective error estimates.
# [4] = Calu-3, read-out: mean inhibition
smiles,measurement,setting,value
CN(C)C(=O)COC(=O)Cc1ccc(OC(=O)c2ccc(NC(=N)N)cc2)cc1 [camostat],IC50,"[1]; Calu-3, read-out: IC50 estimate, pseudovirus cell entry SARS-1-S",193 ± 70.4 nM
same,inhibition at 0.00025 µM,"[1]; Calu-3, concentration 0.25 nM",3.15%
same,inhibition at 0.0025 µM,"[1]; Calu-3, concentration 2.5 nM",5.85%
same,inhibition at 0.025 µM,"[1]; Calu-3, concentration 25 nM",19.9%
same,inhibition at 0.25 µM,"[1]; Calu-3, concentration 250 nM",63.5%
same,inhibition at 2.5 µM,"[1]; Calu-3, concentration 2500 nM",76.2%
same,inhibition at 25 µM,"[1]; Calu-3, concentration 25000 nM",83.2%
same,IC50,"[2]; Calu-3, read-out: IC50 estimate, pseudovirus cell entry NL63-S",806 ± 263 nM
same,inhibition at 0.00025 µM,[2]; [4],-3.23%
same,inhibition at 0.0025 µM,[2]; [4],5.92%
same,inhibition at 0.025 µM,[2]; [4],15.4%
same,inhibition at 0.25 µM,[2]; [4],41.9%
same,inhibition at 2.5 µM,[2]; [4],66.4%
same,inhibition at 25 µM,[2]; [4],73.2%
same,inhibition at 2.788 pM,[3]; pre-incubation 0,-8.21%
same,inhibition at 8.363 pM,[3]; pre-incubation 0,-16.5%
same,inhibition at 25.09 pM,[3]; pre-incubation 0,-12.1%
same,inhibition at 75.27 pM,[3]; pre-incubation 0,11.6%
same,inhibition at 0.000225801 µM,[3]; pre-incubation 0,44.8%
same,inhibition at 0.000677404 µM,[3]; pre-incubation 0,63.8%
same,inhibition at 0.00203221 µM,[3]; pre-incubation 0,78.4%
same,inhibition at 0.00609663 µM,[3]; pre-incubation 0,87.8%
same,inhibition at 0.0182899 µM,[3]; pre-incubation 0,93.9%
same,inhibition at 0.0548697 µM,[3]; pre-incubation 0,95.2%
same,inhibition at 0.164609 µM,[3]; pre-incubation 0,94.9%
same,inhibition at 0.493827 µM,[3]; pre-incubation 0,96.5%
same,inhibition at 1.48148 µM,[3]; pre-incubation 0,97.9%
same,inhibition at 4.44444 µM,[3]; pre-incubation 0,97.2%
same,inhibition at 13.3333 µM,[3]; pre-incubation 0,98.7%
same,inhibition at 40 µM,[3]; pre-incubation 0,98.9%
same,inhibition at 2.788 pM,[3]; pre-incubation 1,6.01%
same,inhibition at 8.363 pM,[3]; pre-incubation 1,2.49%
same,inhibition at 25.09 pM,[3]; pre-incubation 1,10%
same,inhibition at 75.27 pM,[3]; pre-incubation 1,58.4%
same,inhibition at 0.000225801 µM,[3]; pre-incubation 1,90.2%
same,inhibition at 0.000677404 µM,[3]; pre-incubation 1,93.6%
same,inhibition at 0.00203221 µM,[3]; pre-incubation 1,94.9%
same,inhibition at 0.00609663 µM,[3]; pre-incubation 1,95.1%
same,inhibition at 0.0182899 µM,[3]; pre-incubation 1,94.9%
same,inhibition at 0.0548697 µM,[3]; pre-incubation 1,96.1%
same,inhibition at 0.164609 µM,[3]; pre-incubation 1,96%
same,inhibition at 0.493827 µM,[3]; pre-incubation 1,95.8%
same,inhibition at 1.48148 µM,[3]; pre-incubation 1,97.1%
same,inhibition at 4.44444 µM,[3]; pre-incubation 1,97.4%
same,inhibition at 13.3333 µM,[3]; pre-incubation 1,98.2%
same,inhibition at 40 µM,[3]; pre-incubation 1,99.4%
same,inhibition at 2.788 pM,[3]; pre-incubation 4,8.38%
same,inhibition at 8.363 pM,[3]; pre-incubation 4,5.55%
same,inhibition at 25.09 pM,[3]; pre-incubation 4,35.8%
same,inhibition at 75.27 pM,[3]; pre-incubation 4,91%
same,inhibition at 0.000225801 µM,[3]; pre-incubation 4,96.5%
same,inhibition at 0.000677404 µM,[3]; pre-incubation 4,97.6%
same,inhibition at 0.00203221 µM,[3]; pre-incubation 4,97.9%
same,inhibition at 0.00609663 µM,[3]; pre-incubation 4,98.2%
same,inhibition at 0.0182899 µM,[3]; pre-incubation 4,98%
same,inhibition at 0.0548697 µM,[3]; pre-incubation 4,98.6%
same,inhibition at 0.164609 µM,[3]; pre-incubation 4,98.2%
same,inhibition at 0.493827 µM,[3]; pre-incubation 4,99.2%
same,inhibition at 1.48148 µM,[3]; pre-incubation 4,99.4%
same,inhibition at 4.44444 µM,[3]; pre-incubation 4,100%
same,inhibition at 13.3333 µM,[3]; pre-incubation 4,101%
same,inhibition at 40 µM,[3]; pre-incubation 4,102%
same,inhibition at 2.788 pM,[3]; pre-incubation 8,20.8%
same,inhibition at 8.363 pM,[3]; pre-incubation 8,10.7%
same,inhibition at 25.09 pM,[3]; pre-incubation 8,61.7%
same,inhibition at 75.27 pM,[3]; pre-incubation 8,104%
same,inhibition at 0.000225801 µM,[3]; pre-incubation 8,108%
same,inhibition at 0.000677404 µM,[3]; pre-incubation 8,110%
same,inhibition at 0.00203221 µM,[3]; pre-incubation 8,111%
same,inhibition at 0.00609663 µM,[3]; pre-incubation 8,112%
same,inhibition at 0.0182899 µM,[3]; pre-incubation 8,111%
same,inhibition at 0.0548697 µM,[3]; pre-incubation 8,112%
same,inhibition at 0.164609 µM,[3]; pre-incubation 8,113%
same,inhibition at 0.493827 µM,[3]; pre-incubation 8,113%
same,inhibition at 1.48148 µM,[3]; pre-incubation 8,114%
same,inhibition at 4.44444 µM,[3]; pre-incubation 8,115%
same,inhibition at 13.3333 µM,[3]; pre-incubation 8,114%
same,inhibition at 40 µM,[3]; pre-incubation 8,115%
same,inhibition at 2.788 pM,[3]; pre-incubation 18,24.4%
same,inhibition at 8.363 pM,[3]; pre-incubation 18,17.1%
same,inhibition at 25.09 pM,[3]; pre-incubation 18,57.1%
same,inhibition at 75.27 pM,[3]; pre-incubation 18,86.7%
same,inhibition at 0.000225801 µM,[3]; pre-incubation 18,91.7%
same,inhibition at 0.000677404 µM,[3]; pre-incubation 18,94.1%
same,inhibition at 0.00203221 µM,[3]; pre-incubation 18,95.7%
same,inhibition at 0.00609663 µM,[3]; pre-incubation 18,98.6%
same,inhibition at 0.0182899 µM,[3]; pre-incubation 18,99.3%
same,inhibition at 0.0548697 µM,[3]; pre-incubation 18,99.9%
same,inhibition at 0.164609 µM,[3]; pre-incubation 18,101%
same,inhibition at 0.493827 µM,[3]; pre-incubation 18,102%
same,inhibition at 1.48148 µM,[3]; pre-incubation 18,102%
same,inhibition at 4.44444 µM,[3]; pre-incubation 18,103%
same,inhibition at 13.3333 µM,[3]; pre-incubation 18,103%
same,inhibition at 40 µM,[3]; pre-incubation 18,104%
same,inhibition at 2.788 pM,[3]; pre-incubation 24,38.3%
same,inhibition at 8.363 pM,[3]; pre-incubation 24,38.8%
same,inhibition at 25.09 pM,[3]; pre-incubation 24,73.1%
same,inhibition at 75.27 pM,[3]; pre-incubation 24,100%
same,inhibition at 0.000225801 µM,[3]; pre-incubation 24,105%
same,inhibition at 0.000677404 µM,[3]; pre-incubation 24,107%
same,inhibition at 0.00203221 µM,[3]; pre-incubation 24,107%
same,inhibition at 0.00609663 µM,[3]; pre-incubation 24,108%
same,inhibition at 0.0182899 µM,[3]; pre-incubation 24,110%
same,inhibition at 0.0548697 µM,[3]; pre-incubation 24,110%
same,inhibition at 0.164609 µM,[3]; pre-incubation 24,111%
same,inhibition at 0.493827 µM,[3]; pre-incubation 24,111%
same,inhibition at 1.48148 µM,[3]; pre-incubation 24,112%
same,inhibition at 4.44444 µM,[3]; pre-incubation 24,112%
same,inhibition at 13.3333 µM,[3]; pre-incubation 24,112%
same,inhibition at 40 µM,[3]; pre-incubation 24,113%
same,inhibition at 2.788 pM,[3]; pre-incubation 48,4.55%
same,inhibition at 8.363 pM,[3]; pre-incubation 48,-1.82%
same,inhibition at 25.09 pM,[3]; pre-incubation 48,28.4%
same,inhibition at 75.27 pM,[3]; pre-incubation 48,71.5%
same,inhibition at 0.000225801 µM,[3]; pre-incubation 48,83.3%
same,inhibition at 0.000677404 µM,[3]; pre-incubation 48,86.8%
same,inhibition at 0.00203221 µM,[3]; pre-incubation 48,88.2%
same,inhibition at 0.00609663 µM,[3]; pre-incubation 48,89.9%
same,inhibition at 0.0182899 µM,[3]; pre-incubation 48,90.6%
same,inhibition at 0.0548697 µM,[3]; pre-incubation 48,91.9%
same,inhibition at 0.164609 µM,[3]; pre-incubation 48,92.7%
same,inhibition at 0.493827 µM,[3]; pre-incubation 48,94.2%
same,inhibition at 1.48148 µM,[3]; pre-incubation 48,95.1%
same,inhibition at 4.44444 µM,[3]; pre-incubation 48,97%
same,inhibition at 13.3333 µM,[3]; pre-incubation 48,100%
same,inhibition at 40 µM,[3]; pre-incubation 48,107%
